# In patent US7790733B2, “8-alkoxy or cycloalkoxy-4-methyl-3,4-dihydro-quinazolin-2-ylamines” (Hoffman-La Roche Inc., priority 2005, dated 2010):
# Biological target: T1, recombinant human 5-HT5A receptor (Homo sapiens, UniProt P47898)
# T1 construct: expressed in transfected cells; host or cells: Human Embryonic Kidney-EBNA (HEK-EBNA) cells, transient cDNA expression, membranes
# Assay: [3H]LSD radioligand binding assay, recombinant human 5-HT5A receptor in HEK-EBNA cell membranes
# Conditions: [3H]LSD approx. 1 nM; membranes from HEK-EBNA cells transiently expressing 5-HT5A; Ki from IC50 by Cheng-Prussoff equation
# Procedure: A [^3H]LSD radioligand binding assay was used to determine the affinity of the compounds for the recombinant human 5-HT5A receptor, in membranes from transiently (cDNA) expressed 5-HT5A receptors in Human Embryonic Kidney-EBNA (HEK-EBNA) cells. Assay buffer consisted of Tris (50 mM) buffer containing 1 mM EGTA, 10 mM MgCl2 (pH 7.4) and 10 μM pargyline. The binding assay was carried out in 96-well-plates in the presence of [^3H]LSD (approximately 1 nM), approximately 2 μg/well of membrane protein, and 0.5 mg of Ysi-poly-1-lysine SPA beads in a final volume of 200 μl of buffer. Non-specific binding was defined using methiothepin 2 μM. Compounds were tested at 10 concentrations. All assays were conducted in duplicate and repeated at least two times. Assay plates were incubated for 120 min at room temperature before centrifugation. Bound ligand was determined using a Packard Topcount scintillation counter. IC50 values were calculated using a non-linear curve fitting program and Ki values calculated using the Cheng-Prussoff equation. The activity of representative compounds (≦0.05 μM) is described in the table below: […]
# T1 sequence (P47898 whole entry): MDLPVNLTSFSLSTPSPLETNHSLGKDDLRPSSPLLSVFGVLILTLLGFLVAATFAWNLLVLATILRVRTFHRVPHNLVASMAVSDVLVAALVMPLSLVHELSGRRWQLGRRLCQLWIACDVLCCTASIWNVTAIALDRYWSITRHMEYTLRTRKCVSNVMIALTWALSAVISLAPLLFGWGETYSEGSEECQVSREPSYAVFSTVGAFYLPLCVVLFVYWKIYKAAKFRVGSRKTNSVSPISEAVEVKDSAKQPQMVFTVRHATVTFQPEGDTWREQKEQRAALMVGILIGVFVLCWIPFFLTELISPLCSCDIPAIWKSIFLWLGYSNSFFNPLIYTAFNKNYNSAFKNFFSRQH
row,Ki,Structure (SMILES)
1,0.00634 µM,"COc1cccc2c1N=C(N)NC2C (centres unmarked) [Example 1, 8-Methoxy-4-methyl-3,4-dihydro-quinazolin-2-ylamine]"
2,0.00996 µM,"CC(C)Oc1cccc2c1N=C(N)NC2C (centres unmarked) [Example 2, 8-Isopropoxy-4-methyl-3,4-dihydro-quinazolin-2-ylamine]"
3,0.0141 µM,"CCOc1cccc2c1N=C(NCC(F)F)NC2C (centres unmarked) [Example 3, (2,2-Difluoro-ethyl)-(8-ethoxy-4-methyl-3,4-dihydro-quinazolin-2-yl)-amine]"
4,0.0232 µM,"CC(C)Oc1cccc2c1N=C(NCC(F)F)NC2C (centres unmarked) [Example 4, (2,2-Difluoro-ethyl)-(8-isopropoxy-4-methyl-3,4-dihydro-quinazolin-2-yl)-amine]"
5,0.0254 µM,"CNC1=Nc2c(OC(C)C)cccc2C(C)N1 (centres unmarked) [Example 5, (8-Isopropoxy-4-methyl-3,4-dihydro-quinazolin-2-yl)-methyl-amine]"
6,0.0282 µM,"COc1cccc2c1N=C(NCC(F)F)NC2C (centres unmarked) [Example 6, (2,2-Difluoro-ethyl)-(8-methoxy-4-methyl-3,4-dihydro-quinazolin-2-yl)-amine]"
7,0.0345 µM,"CCOc1cccc2c1N=C(NC)NC2C (centres unmarked) [Example 7, (8-Ethoxy-4-methyl-3,4-dihydro-quinazolin-2-yl)-methyl-amine]"
8,0.0372 µM,"CCOc1cccc2c1N=C(N)NC2C (centres unmarked) [Example 8, 8-Ethoxy-4-methyl-3,4-dihydro-quinazolin-2-ylamine]"
9,0.0384 µM,"CNC1=Nc2c(OC)cccc2C(C)N1 (centres unmarked) [Example 9, (8-Methoxy-4-methyl-3,4-dihydro-quinazolin-2-yl)-methyl-amine]"
10,0.0162 µM,"CNC1=Nc2c(OC3CCCC3)cccc2C(C)N1 (centres unmarked) [Example 16, (8-Cyclopentyloxy-4-methyl-3,4-dihydro-quinazolin-2-yl)-methyl-amine]"
11,0.0224 µM,"CC1NC(NCC(F)F)=Nc2c(OC3CCCC3)cccc21 (centres unmarked) [Example 17, (8-Cyclopentyloxy-4-methyl-3,4-dihydro-quinazolin-2-yl)-(2,2-difluoro-ethyl)-amine]"
12,0.0047 µM,"COc1cc(Cl)c(C)c2c1N=C(N)NC2C (centres unmarked) [Example 18, 6-Chloro-8-methoxy-4,5-dimethyl-3,4-dihydro-quinazolin-2-ylamine]"
13,0.0475 µM,"COc1cc(Cl)c(C)c2c1N=C(NC1CCC1)NC2C (centres unmarked) [Example 19, (6-Chloro-8-methoxy-4,5-dimethyl-3,4-dihydro-quinazolin-2-yl)-cyclobutyl-amine]"
14,0.0426 µM,"CNC1=Nc2c(OC)cc(Cl)c(C)c2C(C)N1 (centres unmarked) [Example 20, (6-Chloro-8-methoxy-4,5-dimethyl-3,4-dihydro-quinazolin-2-yl)-methyl-amine]"
